Measurements reported in article PMC9377253, “Antiproliferative and cytotoxic effects of sesquiterpene lactones isolated from Ambrosia artemisiifolia on human adenocarcinoma and normal cell lines” (Pharmaceutical Biology, 2022).

How the values were obtained:
[1] = test system: MRC-5 human embryonal lung fibroblast cell line; test: MTT antiproliferative assay (72 h), MRC-5; type: cell-based
Protocol: (§1) MRC-5 human embryonal lung fibroblast cell lines (ATCC CCL-171) were purchased from LGC Promochem, Teddington, UK. The cell line was cultured in Eagle’s Minimal Essential Medium (EMEM, containing 4.5 g/L glucose) supplemented with a non-essential amino acid mixture, a selection of vitamins and 10% heat-inactivated foetal bovine serum. The cell lines were incubated at 37 °C, in a 5% CO2, 95% air atmosphere.
(§2) MRC-5 non-cancerous human embryonic lung fibroblast and human colonic adenocarcinoma cell lines (doxorubicin-sensitive Colo 205 and multidrug-resistant Colo 320 colonic adenocarcinoma cells) were used to determine the effect of compounds on cell proliferation and growth. The effects of increasing concentrations of compounds on cell proliferation and growth were tested in 96-well flat-bottomed microtitre plates. The compounds were diluted in a volume of 100 μL of medium.
(§3) The adherent human embryonal lung fibroblast cells were seeded overnight and cultured in 96-well flat-bottomed microtitre plates prior to the assay, using EMEM supplemented with 10% heat-inactivated foetal bovine serum. The density of the cells was adjusted to 6 × 10^3 cells (antiproliferative assay) or 1 × 10^4 cells (cytotoxicity assay) in 100 μL per well, the cells were seeded for 24 h at 37 °C, 5% CO2, then the medium was removed from the plates containing the cells, and the dilutions of compounds (200 µL) previously made in a separate plate were added to the cells in.
(§4) The culture plates were incubated at 37 °C for 72 h (antiproliferative test) or 24 h (cytotoxicity test); at the end of the incubation period, 20 μL of MTT (thiazolyl blue tetrazolium bromide, Sigma, St. Louis, MO, USA) solution (from a stock solution of 5 mg/mL) were added to each well. After incubation at 37 °C for 4 h, 100 μL of sodium dodecyl sulphate (SDS) (Sigma) solution (10% in 0.01 M HCI) were added to each well and the plates were further incubated at 37 °C overnight. Cell growth was determined by measuring the optical density (OD) at 540/630 nm with Multiscan EX ELISA reader (Thermo Labsystems, Cheshire, WA, USA). Inhibition of the cell growth was determined according to the formula below: Inhibition %=100−[OD sample−OD medium control/OD cell control−OD medium control]×100
(§5) Results are expressed in terms of IC50, defined as the inhibitory dose that reduces the growth of the cells exposed to the tested compounds by 50%.

[2] = test system: multidrug-resistant Colo 320 colonic adenocarcinoma cells; test: MTT cytotoxicity assay (24 h), Colo 320; type: cell-based; settings: Homo sapiens, COLO 320, 24 h, 24 h incubation, read-out: Cytotoxicity IC50, Colo320
Protocol: (§6) Human colonic adenocarcinoma cell lines (Colo 205 doxorubicin-sensitive and Colo 320/MDR-LRP multidrug-resistant expressing ABCB1 (MDR1)-LRP), ATCC-CCL-220.1 (Colo 320) and CCL-222 (Colo 205) were purchased from LGC Promochem, Teddington, UK. The cells were cultured in RPMI 1640 medium supplemented with 10% heat-inactivated foetal bovine serum, 2 mM L-glutamine, 1 mM Na-pyruvate and 100 mM Hepes. The cell lines were incubated at 37 °C, in a 5% CO2, 95% air atmosphere. The semi-adherent human colon cancer cells were detached with Trypsin-Versene (EDTA) solution for 5 min at 37 °C.
as §2
(§7) In case of the colonic adenocarcinoma cells, the 2-fold serial dilutions of compounds were prepared in 100 μL of RPMI 1640, horizontally. The semi-adherent colonic adenocarcinoma cells were treated with Trypsin-Versene (EDTA) solution. The density of the cells was adjusted to 6 × 10^3 cells (antiproliferative assay) or 1 × 10^4 cells (cytotoxicity assay) in 100 μL of RPMI 1640 medium, and was added to each well, with the exception of the medium control wells. The final volume of the wells containing compounds and cells was 200 μL.
as §4, §5

[3] = test system: multidrug-resistant Colo 320 colonic adenocarcinoma cells expressing the ABCB1 transporter; test: Checkerboard combination assay with doxorubicin; type: cell-based, human; settings: for drug interaction with doxorubicin: Colo320, at certain concentrations
Protocol: A checkerboard microplate method was applied to study the effect of drug interactions between the compounds and doxorubicin. The assay was carried out using multidrug-resistant Colo 320 colonic adenocarcinoma cells expressing the ABCB1 transporter. The final concentration of the chemotherapeutic agent doxorubicin used in the combination experiment was chosen in accordance with their antiproliferative activity previously determined. The dilutions of the chemotherapeutic drug were made in a horizontal direction in 100 μL, and the dilutions of the compounds vertically in the microtitre plate in 50 μL volume. The cells were re-suspended in culture medium and distributed into each well in 50 μL containing 6 × 10^3 cells each. The plates were incubated for 72 h at 37 °C in 5% CO2 atmosphere. The cell growth rate was determined after MTT staining. At the end of the incubation period, 20 μL of MTT (thiazolyl blue tetrazolium bromide, Sigma) solution (from a stock solution of 5 mg/mL) was added to each well. After incubation at 37 °C for 4 h, 100 μL of SDS (Sigma-Aldrich, St. Louis, MO, USA) solution (10% in 0.01 M HCl; Merck, Darmstadt, Germany) were added to each well and the plates were further incubated at 37 °C overnight. OD was measured at 540/630 nm with Multiscan EX ELISA reader (Thermo Labsystems, Cheshire, WA). Combination index (CI) values at 50% of the growth inhibition dose (ED50), were determined using CompuSyn software (ComboSyn, Inc., Paramus, NJ) to plot four to five data points to each ratio.

[4] = test system: doxorubicin-sensitive Colo 205 colonic adenocarcinoma cells; test: MTT antiproliferative assay (72 h), Colo 205; type: cell-based, human; settings: read-out: Antiproliferative IC50, Colo205
Protocol: as §6, §2, §7, §4, §5

[5] = test system: doxorubicin-sensitive Colo 205 colonic adenocarcinoma cells; test: MTT cytotoxicity assay (24 h), Colo 205; type: cell-based, human; settings: Homo sapiens, COLO 205; MTT, 24 h incubation; read-out: Cytotoxicity IC50, Colo205
Protocol: as §6, §2, §7, §4, §5

[6] = MTT cytotoxicity assay (24 h), MRC-5; type: cell-based; settings: human, MRC-5 embryonal lung fibroblast cells, 24 h incubation
Protocol: as §1, §2, §3, §4, §5

[7] = test system: multidrug-resistant Colo 320 colonic adenocarcinoma cells; test: MTT antiproliferative assay (72 h), Colo 320; type: cell-based, human; settings: for IC50: MTT, 72 h incubation, read-out: Antiproliferative IC50, Colo320; for selectivity index (SI), antiproliferative: Colo320 versus MRC-5, cell proliferation inhibition
Protocol: as §6, §2, §7, §4, §5

[8] = test system: MCF-7 mp53 cells; design: method as in Sturgeon et al. [2005]; settings: ref Sturgeon et al. [2005]; cited from earlier work
[9] = test system: NF-κB; design: method as in Sotillo et al. [2017]; settings: ref Sotillo et al. [2017]; cited from earlier work
[10] = test system: breast cancer cell lines (MCF-7, JIMT-1 and HCC1937); design: method as in Sotillo et al. [2017]; settings: ref Sotillo et al. [2017]; cited from earlier work
[11] = Homo sapiens, MRC5, 72 h incubation
[12] = Homo sapiens, COLO 205, 72 h incubation

Q: Which results are given for `C=C1C(=O)O[C@@H]2C[C@H](C)[C@]3(O)CCC(=O)[C@@]3(C)C[C@H]12` [Compound 3, peruvin]?
A: IC50 [1, 11]: 26.4 ± 1.3 µM; IC50 [2]: 82.4 ± 1.17 µM; Type of interaction ([3]; starting concentration 65 µM, ratio 7.54:1): Moderate antagonism; Type of interaction ([3]; starting concentration 65 µM, ratio 15.08:1): Antagonism; Type of interaction ([3]; starting concentration 65 µM, ratio 30.16:1): Antagonism; Type of interaction ([3]; starting concentration 65 µM, ratio 60.32.1): Moderate antagonism; Type of interaction ([3]; starting concentration 65 µM, ratio 120.64:1): Antagonism; Type of interaction ([3]; starting concentration 65 µM, ratio 241.28:1): Additive effect; IC50 [4, 12]: 26.4 ± 1.12 µM; IC50 [5]: 64.4 ± 1.78 µM; IC50 at 24 h [6]: 11.9 ± 1.45 µM; IC50 ([7]; Homo sapiens, COLO 320, 72 h): 21.2 ± 0.72 µM

Q: Which results are given for `C=C1C(=O)O[C@@H]2[C@H]1CC[C@H](C)[C@]1(CCC(=O)O1)[C@@]2(C)O` [Compound 4, psilostachyin]?
A: IC50 [1, 11]: 26.7 ± 0.51 µM; Type of interaction ([3]; starting concentration 25 µM, ratio 2.9:1): Additive effect; Type of interaction ([3]; starting concentration 25 µM, ratio 5.8:1): Moderate antagonism; Type of interaction ([3]; starting concentration 25 µM, ratio 11.6:1): Synergism; Type of interaction ([3]; starting concentration 25 µM, ratio 23.2:1): Antagonism; Type of interaction ([3]; starting concentration 25 µM, ratio 46.4:1): Moderate antagonism; Type of interaction ([3]; starting concentration 25 µM, ratio 92.2:1): Slight antagonism; IC50 [4, 12]: 14.4 ± 1 µM; IC50 [5]: 42.4 ± 2.37 µM; effect on mitosis of MCF-7 mp53 cells (G2 checkpoint inhibitors) [8]: blocked MCF-7 mp53 cells in mitosis; IC50 at 24 h [6]: 41.8 ± 2.43 µM; selectivity index (SI), antiproliferative [7]: 3.04; IC50 ([7]; Homo sapiens, COLO 320, 72 h): 5.29 µM; IC50 [7]: 8.78 ± 0.22 µM

Q: Which results are given for `C=C1C(=O)O[C@@H]2[C@H]1CCC(C)=C(CCC(=O)OC)[C@@]2(C)O` [Compound 5, 1′-noraltamisin]?
A: IC50 [1, 11]: > 100 µM; IC50 [2]: > 100 µM; Type of interaction ([3]; starting concentration 30 µM, ratio 3.48:1): Antagonism; Type of interaction ([3]; starting concentration 30 µM, ratio 6.69:1): Additive effect; Type of interaction ([3]; starting concentration 30 µM, ratio 13.92:1): Slight synergism; Type of interaction ([3]; starting concentration 30 µM, ratio 27.84:1): Additive effect; Type of interaction ([3]; starting concentration 30 µM, ratio 55.68:1): Moderate antagonism; Type of interaction ([3]; starting concentration 30 µM, ratio 111.36:1): Additive effect; IC50 [4, 12]: > 100 µM; IC50 [5]: > 100 µM; IC50 at 24 h [6]: > 100 µM; IC50 ([7]; listed as 1′-Noraltamisin): 8.78 µM; IC50 [7]: > 100 µM

Q: What does the source list for `C=C1C(=O)O[C@@H]2[C@H]1CCC(C)=C1CCC(=O)O[C@]12C` [Compound 6, psilostachyin B]?
A: IC50 ([1]; 72 h incubation): 26.4 ± 0.81 µM; Type of interaction ([3]; starting concentration 100 µM, ratio 11.6:1): Syn.; Type of interaction ([3]; starting concentration 100 µM, ratio 23.2:1): Syn.; Type of interaction ([3]; starting concentration 100 µM, ratio 46.4:1): Antagonism; Type of interaction ([3]; starting concentration 100 µM, ratio 92.8:1): Slight antagonism; Type of interaction ([3]; starting concentration 100 µM, ratio 185.6:1): Moderate ant.; Type of interaction ([3]; starting concentration 100 µM, ratio 371.2:1): Antagonism; IC50 ([4]; 72 h incubation): 11 ± 0.56 µM; selectivity index (SI), antiproliferative [7]: 4.98; IC50 [7]: 5.29 ± 0.15 µM

Q: For `C=C1C(=O)O[C@@H]2[C@H]1CC[C@H](C)[C@H](CCC(=O)OC)[C@@]2(C)O` [Compound 7, 1,10-dihydro-1′-noraltamisin], which IC50 [1, 11] is on record?
A: 39.8 ± 0.53 µM

Q: And the IC50 [2]?
A: 86.6 ± 1.06 µM

Q: And the “drug interaction with doxorubicin” value [3]?
A: synergistic effects

Q: What about the Type of interaction ([3]; starting concentration 150 µM, ratio 17.42:1) of the same compound?
A: Very strong syn.

Q: And the Type of interaction ([3]; starting concentration 150 µM, ratio 34.84:1)?
A: Moderate syn.

Q: What about the Type of interaction ([3]; starting concentration 150 µM, ratio 69.68:1) of the same compound?
A: Moderate syn.

Q: What about the Type of interaction ([3]; starting concentration 150 µM, ratio 139.36:1) of the same compound?
A: Moderate syn.

Q: What about the Type of interaction ([3]; starting concentration 150 µM, ratio 278.72:1) of the same compound?
A: Moderate syn.

Q: What about the Type of interaction ([3]; starting concentration 150 µM, ratio 557.44:1) of the same compound?
A: Syn.

Q: And the IC50 [4, 12]?
A: 17 ± 1.99 µM

Q: And the IC50 [5]?
A: 53.6 ± 0.87 µM

Q: And the IC50 at 24 h [6]?
A: > 100 µM

Q: What about the IC50 ([7]; Homo sapiens, COLO 320, 72 h) of the same compound?
A: 34.5 ± 2.07 µM

Q: With `COc1c(O)cc2oc(-c3ccc(O)c(O)c3)c(OC)c(=O)c2c1O` [Compound 8, axillarin] as the compound, how does the IC50 [1, 11] read?
A: 4.03 ± 0.56 µM

Q: What about the IC50 [2] of the same compound?
A: > 100 µM

Q: What about the “drug interaction with doxorubicin” value [3] of the same compound?
A: synergistic effects

Q: What about the IC50 [4, 12] of the same compound?
A: 66.8 ± 0.96 µM

Q: And the IC50 [5]?
A: > 100 µM

Q: What about the IC50 at 24 h [6] of the same compound?
A: > 100 µM

Q: What about the IC50 ([7]; Homo sapiens, COLO 320, 72 h) of the same compound?
A: 50.4 ± 2.98 µM

Q: What does the source list for `COc1cccc2c1C(=O)c1c(O)c3c(c(O)c1C2=O)C[C@@](O)(C(=O)CO)C[C@@H]3O[C@H]1C[C@H](N)[C@H](O)[C@H](C)O1` [Doxorubicin, doxorubicin, reference compound]?
A: IC50 [1, 11]: 0.53 ± 0.06 µM; IC50 [4, 12]: 0.24 ± 0.03 µM; IC50 ([7]; Homo sapiens, COLO 320, 72 h): 0.14 ± 0.03 µM

Q: Which results are given for `C=C1C(=O)O[C@@H]2[C@H]1CC[C@H](C)[C@@H]1C=CC(=O)[C@@]21C` [ambrosin]?
A: TNF-α-induced translocation of NF-κB [9]: inhibited; cytotoxicity to breast cancer cell lines [10]: cytotoxic

Q: For `C=C1C(=O)O[C@@H]2[C@H]1CC[C@H](C)[C@]1(O)CCC(=O)[C@@]21C` [coronopilin], which “TNF-α-induced translocation of NF-κB” value [9] is on record?
A: inhibited

Q: What about the “cytotoxicity to breast cancer cell lines” value [10] of the same compound?
A: cytotoxic

Q: Which results are given for `C=C1C(=O)O[C@@H]2[C@H]1CC[C@H](C)[C@@H]1CCC(=O)[C@@]21C` [damsin]?
A: TNF-α-induced translocation of NF-κB [9]: inhibited; cytotoxicity to breast cancer cell lines [10]: cytotoxic
